Test [1] concerns the target T1, D(4) dopamine receptor (Rattus norvegicus, UniProt P30729).
T1 sequence (P30729 whole entry): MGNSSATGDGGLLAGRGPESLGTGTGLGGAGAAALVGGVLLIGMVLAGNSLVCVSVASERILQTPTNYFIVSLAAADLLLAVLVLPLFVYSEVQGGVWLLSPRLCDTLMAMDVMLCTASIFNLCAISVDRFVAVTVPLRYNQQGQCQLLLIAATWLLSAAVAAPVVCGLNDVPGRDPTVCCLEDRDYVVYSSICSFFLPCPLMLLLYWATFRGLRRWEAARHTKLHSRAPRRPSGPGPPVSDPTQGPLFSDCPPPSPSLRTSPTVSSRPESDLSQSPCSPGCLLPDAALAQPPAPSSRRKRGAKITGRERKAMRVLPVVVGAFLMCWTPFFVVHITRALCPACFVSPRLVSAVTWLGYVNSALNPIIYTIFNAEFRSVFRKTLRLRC

In test [2] the target is T2, Dopamine receptor D4 (Canis lupus familiaris, UniProt Q589Y6).
T2 sequence (Q589Y6 whole entry): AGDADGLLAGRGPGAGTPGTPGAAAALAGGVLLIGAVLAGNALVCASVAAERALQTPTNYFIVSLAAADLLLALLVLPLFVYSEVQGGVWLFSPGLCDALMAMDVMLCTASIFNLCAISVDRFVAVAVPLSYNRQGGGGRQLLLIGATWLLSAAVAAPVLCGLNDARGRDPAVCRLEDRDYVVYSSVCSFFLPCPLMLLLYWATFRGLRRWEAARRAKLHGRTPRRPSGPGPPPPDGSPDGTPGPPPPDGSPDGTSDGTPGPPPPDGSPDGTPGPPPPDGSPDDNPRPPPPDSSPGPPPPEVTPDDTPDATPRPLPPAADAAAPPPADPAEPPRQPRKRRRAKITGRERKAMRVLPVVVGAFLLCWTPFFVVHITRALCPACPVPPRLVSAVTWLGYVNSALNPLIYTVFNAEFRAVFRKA

For test [3], the target named is D(2) dopamine receptor (Homo sapiens, UniProt P14416).
Sequence of D(2) dopamine receptor (P14416 whole entry): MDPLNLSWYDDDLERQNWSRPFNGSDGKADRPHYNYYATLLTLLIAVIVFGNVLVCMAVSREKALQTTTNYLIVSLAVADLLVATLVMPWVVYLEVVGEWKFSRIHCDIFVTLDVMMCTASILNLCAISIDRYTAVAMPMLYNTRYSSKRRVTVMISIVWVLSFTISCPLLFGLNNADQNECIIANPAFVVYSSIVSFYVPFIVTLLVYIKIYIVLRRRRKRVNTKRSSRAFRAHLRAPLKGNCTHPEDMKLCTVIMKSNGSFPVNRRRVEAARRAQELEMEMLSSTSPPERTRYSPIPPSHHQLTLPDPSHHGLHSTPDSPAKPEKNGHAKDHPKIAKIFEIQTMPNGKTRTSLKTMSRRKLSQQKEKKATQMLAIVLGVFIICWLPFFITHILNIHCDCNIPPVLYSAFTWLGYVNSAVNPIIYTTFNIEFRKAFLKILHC

The structures appear in SMILES notation. Several values for one entry are separate records, joined by “and”; a condition that tells them apart may be missing. Equal entries are not always repeated.

For the compound `CCN1CCC[C@H]1CNC(=O)c1c(O)c(Cl)cc(Cl)c1OC` [3,5-Dichloro-N-(1-ethyl-pyrrolidin-2-ylmethyl)-2-hydroxy-6-methoxy-benzamide (raclopride)], in test [1], the Ki (as a rule, the equilibrium dissociation constant of an inhibitor or competing ligand from its target) was determined as 237 nM.

With `CN1CCc2cccc3c2[C@H]1Cc1ccc(O)c(O)c1-3` [APOKYN], in test [2], the Ki was 2 nM and 4.1 nM.

As to `O=c1[nH]c2ccccc2n1C1CCN(CCCC(c2ccc(F)cc2)c2ccc(F)cc2)CC1` [1-(1-(4,4-bis(4-fluorophenyl)butyl)piperidin-4-yl)-1H-benzo[d]imidazol-2(3H)-one], the affinity in test [1], expressed as Ki, was 43 nM.

Compound `NCCc1c[nH]c2ccc(O)cc12` [[3H]-5-HT] showed a Ki in test [2] of 4180 nM.

Consider `CN1CCN(CCCN2c3ccccc3Sc3ccc(S(=O)(=O)N(C)C)cc32)CC1` [NSC_92178], for which the Ki in test [1] stood at 53 nM.

As to `CCCN1CCC[C@@H]2Cc3n[nH]cc3C[C@H]21` [NSC_54562], the inhibition constant Ki in test [2] is 4.8 nM and 46 nM.

As for `NCCc1ccc(O)c(O)c1`, in test [2], the Ki is 7.5 nM and 28 nM.

In test [2], `CN1CCN(C2=c3ccccc3=Nc3ccc(Cl)cc3N2)CC1` [6-chloro-10-(4-methylpiperazin-1-yl)-2,9-diazatricyclo[9.4.0.0^{3,8}]pentadeca-1,3(8),4,6,10,12,14-heptaene] returned a Ki of 9 nM.

As for `CN1CCN(CCCN2c3ccccc3Sc3ccc(C(F)(F)F)cc32)CC1`, the Ki in test [2] was 1.2 nM and 3 nM.

As to `NCC(O)c1ccc(O)c(O)c1` (stereo not drawn) [Noradrenaline,(+)], the Ki in test [2] was 6000 nM and 1760 nM.

Regarding `CC(C)C[C@H]1C(=O)N2CCC[C@H]2[C@]2(O)O[C@](NC(=O)[C@@H]3C=C4c5cccc6[nH]c(Br)c(c56)C[C@H]4N(C)C3)(C(C)C)C(=O)N12` [Bromocriptine+ (GTP+)], the Ki in test [3] amounted to 12.6 nM; in test [1] it was 340 nM.

In the case of `O=C(c1ccc(F)cc1)C1CCN(CCn2c(=O)[nH]c3ccccc3c2=O)CC1` [3-(2-{4-[(4-fluorophenyl)carbonyl]piperidin-1-yl}ethyl)-1,2,3,4-tetrahydroquinazoline-2,4-dione], the Ki in test [2] was 192 nM and 148 nM.

In test [1], `Nc1nc2c(ncn2[C@@H]2O[C@H](COP(=O)(O)OP(=O)(O)OP(=O)(O)O)[C@@H](O)[C@H]2O)c(=O)[nH]1` [Dopamine+ (GTP+)] had a Ki of 450 nM. In other words, the sub-micromolar range.

(Values after BindingDB's records for doi:10.1038/350610a0 (University of Toronto, 1991).)
